Results from patent US9247750B2, “Polyenylcyclopropanecarboxylic esters with high insecticidal activity” (Endura S.P.A., priority 2007, dated 2016).

What was measured:
Format in all cases: in vivo
Blattella germanica = experiment: Effectiveness of residual insecticide on surfaces (glazed tiles) against cockroaches (Example 6); details: 50 mg/m^2 on glazed tiles; for percentage knock-down after 24 hours: 24 h exposure
Experimental: Solutions of the compound of example 3 in acetone and, for comparison, of the reference compounds Transfluthrin and Metofluthrin were applied from a distance of 12 cm onto glazed tiles (Ostara model, 15×15 cm=225 cm^2) by means of a suitable glass sprayer, so as to obtain an applied amount of pure compound equal to 50 mg/m^2. After treatment the tiles were transferred to and maintained in a closed test room at controlled temperature and humidity (24-25° C., RH 50-60%). Glass rings (H 5.5 cm×Ø 9.5 cm), with their internal surface treated with talc, and each containing 5 cockroaches, were positioned at the centre of the tiles for each of the assessment times of 24 hours, 3, 7, 10 and 14 days following treatment. For each assessment day, the insects were maintained on the surface for 24 hours and the time (hours, minutes) necessary to attain 100% knock-down followed by death, or percentage knock-down at the end of 24 hours, were recorded.

Aedes aegypti [1] = experiment: Insecticide effectiveness in the vapour phase against mosquitoes, impregnated paper unit in 20 m^3 room (Example 9); details: 5 mg/unit; for % mortality 24 h: 24th hour from start of test; for % Knock-down 8 h: at end of 8th hour; for Knock-down time KT10 / Knock-down time KT50 / Knock-down time KT90: average of 3 cages
Experimental: (§1) Test units consisting of a paper support 20 cm×10 cm in size were impregnated with the compound of examples 3, 7 and 8 and, for comparative purposes, with the reference compounds transfluthrin and metofluthrin, at an amount of 5.00 mg/unit for each compound (pure). Using a common laboratory stand, the test unit was placed at a height of about 30 cm from the ground along one side of a 20 m^3 room (L 3.00 m×D 2.49 m×H 2.69 m). In order to homogenize the insecticidal air within the room, a small electric fan was placed on the floor diagonal to the surface of the unit, in the nearest corner at a distance of about 50 cm from the unit. Three metal cages (L 8.4 cm×Ø 8.0 cm×mesh 1.0 mm) for every mosquito species, each containing 20 3-4 day old individuals of mixed sex, were placed along the other three sides of the room, at a height of 1.80 m from the ground and at a distance of 0.45 m from the respective walls. During the test the room was kept closed and temperature and humidity were controlled (T 23-26° C., RH 49-61%). The fan was switched on and left on for 8 continuous hours. The times needed to reach 10%, 50% and 90% insect knock-down (KT10, KT50 and KT90, respectively) were recorded.
(§2) Every 2 hours and up to the 6th hour after the fan was switched on, new cages were introduced containing insects (set of 3 cages for each species).
(§3) At the end of the 8th hour, the percentage of insects knocked down in all the cages was determined, then the insects were removed from the room and transferred into an uncontaminated atmosphere within closed containers containing a sugary solution. The percentage mortality was recorded at the 24th hour from the start of the test.
(§4) The results obtained are summarized in tables 1 and 2 and the data are averages for the 3 cages.

Culex quinquefasciatus [2] = experiment: as above; details: 5 mg/unit; for % mortality 24 h: 24th hour from start of test; for % Knock-down 8 h: at end of 8th hour; for Knock-down time KT10 / Knock-down time KT50 / Knock-down time KT90: average of 3 cages
Experimental: as §1, §2, §3, §4

Aedes aegypti [3] = experiment: Insecticide effectiveness in the vapour phase against mosquitoes, impregnated paper unit in 20 m^3 room (Example 5); details: 5 mg/unit; for % mortality 24 h: 24th hour from start of test; for % Knock-down 8 h: at end of 8th hour; for Knock-down time KT10 / Knock-down time KT50 / Knock-down time KT90: average of 3 cages
Experimental: (§5) Test units consisting of a paper support 20 cm×10 cm in size were impregnated with the compound of example 3 and, for comparative purposes, with the reference compounds transfluthrin and metofluthrin, at an amount of 5.00 mg/unit for each compound (pure).
(§6) Using a common laboratory stand, the test unit was placed at a height of about 30 cm from the ground along one side of a 20 m^3 room (L 3.00 m×D 2.49 m×H 2.69 m). In order to homogenize the insecticidal air within the room, a small electric fan was placed on the floor diagonal to the surface of the unit, in the is nearest corner at a distance of about 50 cm from the unit. Three metal cages (L 8.4 cm×Ø 8.0 cm×mesh 1.0 mm) for every mosquito species, each containing 20 3-4 day old individuals of mixed sex, were placed along the other three sides of the room, at a height of 1.80 m from the ground and at a distance of 0.45 m from the respective walls. During the test the room was kept closed and temperature and humidity were controlled (T 23-26° C., RH 49-61%).
(§7) The fan was switched on and left on for 8 continuous hours. The times needed to reach 10%, 50% and 90% insect knock-down (KT10, KT50 and KT90, respectively) were recorded.
as §2, §3, §4

Culex quinquefasciatus [4] = experiment: as above; details: 5 mg/unit; for % mortality 24 h: 24th hour from start of test; for % Knock-down 8 h: at end of 8th hour; for Knock-down time KT10 / Knock-down time KT50 / Knock-down time KT90: average of 3 cages
Experimental: as §5, §6, §7, §2, §3, §4

CC=CC1C(C(=O)OCc2c(F)c(F)c(COC)c(F)c2F)C1(C)C (centres unmarked) [Metofluthrin, (2,3,5,6-tetrafluoro-4-methoxy-methyl)benzyl-2,2-dimethyl-3-prop-1-enylcyclopropanecarboxylate]
percentage knock-down after 24 hours (Blattella germanica; 1 day after treatment): 80%*) | Time to reach 100% knock-down (Blattella germanica; 1 day after treatment, one of the 5 individuals recovered within 24 hours): 2 h (24 h | percentage knock-down after 24 hours (Blattella germanica; 3 days after treatment): 24 h 40% | percentage knock-down after 24 hours (Blattella germanica; 7 days after treatment): 24 h 0% | percentage knock-down after 24 hours (Blattella germanica; 10 days after treatment): 24 h 0% | % mortality 24 h (Aedes aegypti [1]; insect exposure after 0 hours): 100% | % Knock-down 8 h (Aedes aegypti [1]; insect exposure after 0 hours): 100% | Knock-down time KT10 (Aedes aegypti [1]; insect exposure after 0 hours): 16 min | Knock-down time KT50 (Aedes aegypti [1]; insect exposure after 0 hours): 25 min | Knock-down time KT90 (Aedes aegypti [1]; insect exposure after 0 hours): 34 min | % mortality 24 h (Aedes aegypti [1]; insect exposure after 2 hours): 100% | % Knock-down 8 h (Aedes aegypti [1]; insect exposure after 2 hours): 100% | Knock-down time KT10 (Aedes aegypti [1]; insect exposure after 2 hours): 7 min | Knock-down time KT50 (Aedes aegypti [1]; insect exposure after 2 hours): 9 min | Knock-down time KT90 (Aedes aegypti [1]; insect exposure after 2 hours): 15 min | % mortality 24 h (Aedes aegypti [1]; insect exposure after 4 hours): 100% | % Knock-down 8 h (Aedes aegypti [1]; insect exposure after 4 hours): 100% | Knock-down time KT10 (Aedes aegypti [1]; insect exposure after 4 hours): 6 min | Knock-down time KT50 (Aedes aegypti [1]; insect exposure after 4 hours): 8 min | Knock-down time KT90 (Aedes aegypti [1]; insect exposure after 4 hours): 14 min | % mortality 24 h (Culex quinquefasciatus [2]; insect exposure after 0 hours): 100% | % Knock-down 8 h (Culex quinquefasciatus [2]; insect exposure after 0 hours): 100% | Knock-down time KT10 (Culex quinquefasciatus [2]; insect exposure after 0 hours): 22 min | Knock-down time KT50 (Culex quinquefasciatus [2]; insect exposure after 0 hours): 32 min | Knock-down time KT90 (Culex quinquefasciatus [2]; insect exposure after 0 hours): 36 min | % mortality 24 h (Culex quinquefasciatus [2]; insect exposure after 2 hours): 100% | % Knock-down 8 h (Culex quinquefasciatus [2]; insect exposure after 2 hours): 100% | Knock-down time KT10 (Culex quinquefasciatus [2]; insect exposure after 2 hours): 11 min | Knock-down time KT50 (Culex quinquefasciatus [2]; insect exposure after 2 hours): 16 min | Knock-down time KT90 (Culex quinquefasciatus [2]; insect exposure after 2 hours): 22 min | % mortality 24 h (Culex quinquefasciatus [2]; insect exposure after 4 hours): 100% | % Knock-down 8 h (Culex quinquefasciatus [2]; insect exposure after 4 hours): 100% | Knock-down time KT10 (Culex quinquefasciatus [2]; insect exposure after 4 hours): 10 min | Knock-down time KT50 (Culex quinquefasciatus [2]; insect exposure after 4 hours): 14 min | Knock-down time KT90 (Culex quinquefasciatus [2]; insect exposure after 4 hours): 20 min | % mortality 24 h (Aedes aegypti [3]; insect exposure after 0 hours): 100% | % Knock-down 8 h (Aedes aegypti [3]; insect exposure after 0 hours): 100% | Knock-down time KT10 (Aedes aegypti [3]; insect exposure after 0 hours): 23 min | Knock-down time KT50 (Aedes aegypti [3]; insect exposure after 0 hours): 30 min | Knock-down time KT90 (Aedes aegypti [3]; insect exposure after 0 hours): 39 min | % mortality 24 h (Aedes aegypti [3]; insect exposure after 2 hours): 100% | % Knock-down 8 h (Aedes aegypti [3]; insect exposure after 2 hours): 100% | Knock-down time KT10 (Aedes aegypti [3]; insect exposure after 2 hours): 7 min | Knock-down time KT50 (Aedes aegypti [3]; insect exposure after 2 hours): 9 min | Knock-down time KT90 (Aedes aegypti [3]; insect exposure after 2 hours): 15 min | % mortality 24 h (Aedes aegypti [3]; insect exposure after 4 hours): 100% | % Knock-down 8 h (Aedes aegypti [3]; insect exposure after 4 hours): 100% | Knock-down time KT10 (Aedes aegypti [3]; insect exposure after 4 hours): 6 min | Knock-down time KT50 (Aedes aegypti [3]; insect exposure after 4 hours): 8 min | Knock-down time KT90 (Aedes aegypti [3]; insect exposure after 4 hours): 14 min | % mortality 24 h (Culex quinquefasciatus [4]; insect exposure after 0 hours): 100% | % Knock-down 8 h (Culex quinquefasciatus [4]; insect exposure after 0 hours): 100% | Knock-down time KT10 (Culex quinquefasciatus [4]; insect exposure after 0 hours): 26 min | Knock-down time KT50 (Culex quinquefasciatus [4]; insect exposure after 0 hours): 30 min | Knock-down time KT90 (Culex quinquefasciatus [4]; insect exposure after 0 hours): 35 min | % mortality 24 h (Culex quinquefasciatus [4]; insect exposure after 2 hours): 100% | % Knock-down 8 h (Culex quinquefasciatus [4]; insect exposure after 2 hours): 100% | Knock-down time KT10 (Culex quinquefasciatus [4]; insect exposure after 2 hours): 11 min | Knock-down time KT50 (Culex quinquefasciatus [4]; insect exposure after 2 hours): 16 min | Knock-down time KT90 (Culex quinquefasciatus [4]; insect exposure after 2 hours): 24 min | % mortality 24 h (Culex quinquefasciatus [4]; insect exposure after 4 hours): 100% | % Knock-down 8 h (Culex quinquefasciatus [4]; insect exposure after 4 hours): 100% | Knock-down time KT10 (Culex quinquefasciatus [4]; insect exposure after 4 hours): 11 min | Knock-down time KT50 (Culex quinquefasciatus [4]; insect exposure after 4 hours): 16 min | Knock-down time KT90 (Culex quinquefasciatus [4]; insect exposure after 4 hours): 20 min
